Measurements from article PMC5226997 (European Journal of Clinical Pharmacology, 2016).
Where “and” joins values, the source holds several entries; their conditions need not be identical. Equal values may be shown once. Read-outs that look alike come from different tables or passages of the source. Marks after values point to notes of the source that are not given here. Values belong to the compound of their own block, whether it stands above or below them.

Columns and labels:
[1] = Study B: safety and tolerability (adverse events); format: in vivo, human
Experimental: Adverse events (reported by system organ class and preferred term using the Medical Dictionary for Regulatory Activities (MedDRA) version 17.0), vital signs, 12-lead electrocardiograms (ECGs), and clinical laboratory tests were recorded to assess safety and tolerability in both trials. Adverse events were collected from day 1, period 1 of visit 2, until the follow-up visit in each trial. Serious adverse events were collected from the time of informed consent until follow-up. Each adverse event was assigned to the period of study treatment in which it started or worsened. Additional information regarding safety and tolerability is included as Online Resource 3.
The safety analysis set included any subject who received at least one dose of any of the investigational products, and in addition in the itraconazole/fluconazole trial, for whom post-dose data were available.

[2] = Study A: plasma pharmacokinetics of single-dose selumetinib 25 mg alone or co-dosed with itraconazole or fluconazole; conditions: for AUC / Cmax / half-life: human, plasma, oral
Description: (§1) The phase I, open-label, single-center, double-crossover-sequence, partially randomized (for assignment to treatment sequence), three-period itraconazole/fluconazole trial consisted of four visits to the study center (Fig. 1a). Subjects were screened during visit 1, which is 28 days prior to visit 2.
(§2) On day 1 of visit 2, subjects were randomized to one of two treatment sequences and admitted for residence at the study center up to day 12; standardized meals were provided during residency. […] Safety assessments were performed, and blood samples were collected for PK analysis up until day 12. Subjects were discharged on day 12 and completed a washout period of at least 21 days.
(§3) During visit 3, dosing period 3 comprised days 1–11 when subjects received the alternate treatment regimen (fluconazole 400 mg on day 1 followed by 200 mg once daily thereafter or itraconazole 200 mg twice daily) in a crossover fashion. […] Subjects were discharged on day 12. A follow-up visit, visit 4, was scheduled for 7–10 days after discharge from the study center.
(§4) Fluids were not allowed from 1 h pre- until 1 h post-dose, with the exception of 240 mL water to swallow the capsules. Fluconazole was dosed with a light breakfast; there were no restrictions regarding dosing with food in the SPC [8]. Itraconazole was dosed with a light breakfast and dinner as per SPC guidelines to ensure complete absorption [9].
(§5) Blood samples were collected prior to itraconazole or fluconazole administration on days 6 to 8 to determine trough itraconazole or fluconazole concentrations; rifampicin concentrations were measured at 2 h post-dose. In study B, the 4β-hydroxycholesterol to cholesterol concentration ratio was calculated as a biomarker of CYP3A4 induction. […] Samples were analyzed by Covance on behalf of AstraZeneca R&D, using an appropriate bioanalytical method [e.g., [11], [12]].
(§6) PK variables were summarized using descriptive statistics.
(§7) After addition of deuterated internal standard, samples were extracted by protein precipitation by the addition of 4 volumes of methanol:acetonitrile. After centrifugation, the supernatants were extracted to dryness under nitrogen at 50°C and reconstituted in methanol;water before analysis.

clinical = conditions: human, in vivo, 75 mg
Experimental: (§8) The rifampicin open-label, fixed-sequence, single-center trial consisted of three visits to the study center (Fig. 1b). Subjects were screened during visit 1, which is 28 days prior to visit 2. […] Safety assessments were performed, and blood samples were collected for PK analysis up until day 15. Subjects were discharged from the study center on day 15. The final visit, visit 3, was for follow-up and took place 7–10 days after discharge.
(§9) Subjects received daily dosing of rifampicin 600 mg for 8 days to maximize the induction effect on CYP3A4 [10]. […] Fluids were not allowed from 1 h pre- until 1 h post-dose, with the exception of water needed to swallow investigational products.
as §5, §6, §7

[3] = design: method as in earlier work; conditions: relative bioavailability trial NCT01635023; cited from earlier work
[4] = human
Experimental: as §7

[5] = Study A: safety and tolerability (adverse events); format: in vivo, human
[6] = Study B: plasma pharmacokinetics of single-dose selumetinib 75 mg alone or co-dosed with rifampicin; conditions: human, in vivo
Experimental: as §8, §9, §5, §6, §7

[7] = human, in vivo, 75 mg
Experimental: as §8, §9, §5, §6, §7

[8] = human, in vivo
Description: as §1, §2, §3, §4, §5, §6, §7

[9] = Frozen storage stability in plasma samples; conditions: plasma with K2EDTA; -20°C -80°C
Experimental: as §7

[10] = co-dosed with fluconazole vs selumetinib alone
[11] = during single-agent (only) treatment

Compound: Cn1cnc2c(F)c(Nc3ccc(Br)cc3Cl)c(C(=O)NOCCO)cc21 [Selumetinib]
relation of adverse events to selumetinib treatment ([1]; all adverse events mild): unrelated
subjects reporting at least one adverse event ([1]; selumetinib co-dosed with rifampicin, one subject (erythema)): 4.5%
subjects reporting at least one adverse event ([1]; selumetinib-only treatment, four subjects): 18.2%
tolerability ([1]; single dose or co-administered with rifampicin): well tolerated
AUC increased by [2, 10]: 53% and ~ 50%
C max increased by [2, 10]: 26%
AUC ([2]; 25 mg, AUC (CV%), study A, selumetinib 25 mg alone, N = 26): 1180 ng·h/mL
AUC ([2]; 25 mg, AUC, geometric least squares mean (GLSMR line), study A, selumetinib 25 mg alone, n = 26, linear mixed-effects model): 1180 ng·h/mL
Cmax ([2]; 25 mg, C max (CV%), study A, selumetinib 25 mg alone, N = 26): 409 ng/mL
Cmax ([2]; 25 mg, C max, geometric least squares mean (GLSMR line), study A, selumetinib 25 mg alone, n = 26, linear mixed-effects model): 409 ng/mL
half-life ([2]; 25 mg, t 1/2 arithmetic mean (SD), study A, selumetinib 25 mg alone, N = 26): 8.24 h
AUC ([2]; AUC (CV%), study A, selumetinib 25 mg + fluconazole, N = 22): 1770 ng·h/mL
AUC ([2]; AUC (CV%), study A, selumetinib 25 mg + itraconazole, N = 24): 1760 ng·h/mL
AUC ([2]; AUC, geometric least squares mean (GLSMR line), study A, selumetinib 25 mg + fluconazole, n = 22, linear mixed-effects model): 1820 ng·h/mL
AUC ([2]; AUC, geometric least squares mean (GLSMR line), study A, selumetinib 25 mg + itraconazole, n = 24, linear mixed-effects model): 1770 ng·h/mL
Cmax ([2]; C max (CV%), study A, selumetinib 25 mg + fluconazole, N = 22): 509 ng/mL
Cmax ([2]; C max (CV%), study A, selumetinib 25 mg + itraconazole, N = 24): 484 ng/mL
Cmax ([2]; C max, geometric least squares mean (GLSMR line), study A, selumetinib 25 mg + fluconazole, n = 22, linear mixed-effects model): 513 ng/mL
Cmax ([2]; C max, geometric least squares mean (GLSMR line), study A, selumetinib 25 mg + itraconazole, n = 24, linear mixed-effects model): 484 ng/mL
half-life ([2]; mean t 1/2 prolonged by, co-dosed with fluconazole vs selumetinib alone): ~1.5 h
half-life ([2]; mean terminal half-life (t 1/2) prolonged by, co-dosed with itraconazole vs selumetinib alone): ~6 h
half-life ([2]; t 1/2 arithmetic mean (SD), study A, selumetinib 25 mg + fluconazole, N = 22): 9.75 h
half-life ([2]; t 1/2 arithmetic mean (SD), study A, selumetinib 25 mg + itraconazole, N = 24): 14 h
CL/F arithmetic mean (SD) ([2]; study A, selumetinib 25 mg + fluconazole, N = 22): 14.8 (4.39) L/h
CL/F arithmetic mean (SD) ([2]; study A, selumetinib 25 mg + itraconazole, N = 24): 14.9 (4.92) L/h
CL/F arithmetic mean (SD) ([2]; study A, selumetinib 25 mg alone, N = 26): 21.9 (5.76) L/h
Tmax (clinical): 1.27 h
AUC (clinical; AUC, geometric least squares mean (GLSMR line)): 4480 ng·h/mL
half-life (clinical; t 1/2 arithmetic mean (SD)): 9.27 h
within-subject coefficient of variation (CV) for AUC [3]: 16.9%
within-subject coefficient of variation (CV) for C max [3]: 34.0%
established frozen storage stability period [4]: 24 months
subjects reporting adverse events [5, 11]: 7.7%
subjects with selumetinib-related adverse events (diffuse alopecia, headache; mild) ([5]; selumetinib and itraconazole co-dosing, n = 2): 8.3%
subjects reporting adverse events ([5]; selumetinib co-dosed with fluconazole, 4/22): 18.2%
subjects with selumetinib-related acne (mild) ([5]; selumetinib co-dosed with fluconazole, one subject): 4.5%
subjects reporting headache ([5]; selumetinib co-dosed with itraconazole, n = 4/24): 16.7%
subjects reporting adverse events ([5]; selumetinib co-dosed with itraconazole, n = 7/24): 29.2%
subjects reporting a moderate adverse event (headache) ([5]; selumetinib co-dosed with itraconazole, one subject): 4.2%
tolerability ([5]; single dose or co-administered with itraconazole or fluconazole): well tolerated
AUC [6]: 4480 ng·h/mL
C max, geometric least squares mean (GLSMR line) [7]: 1441 ng/mL
CL/F arithmetic mean (SD) [7]: 17.0 (3.33) L/h

Compound: CCC(C)n1ncn(-c2ccc(N3CCN(c4ccc(OCC5COC(Cn6cncn6)(c6ccc(Cl)cc6Cl)O5)cc4)CC3)cc2)c1=O (centres unmarked) [itraconazole, reference compound]
subjects reporting adverse events [5, 11]: 20.8%

trough plasma concentration (geometric mean) [8]: 5590 to 5730 ng/mL
Compound: OC(Cn1cncn1)(Cn1cncn1)c1ccc(F)cc1F [fluconazole, reference compound]
subjects reporting adverse events [5, 11]: 17.4%

AUC(0–t), geometric least squares mean (GLSMR line) ([8]; 25 mg): 83.39 ng·h/mL
C max, geometric least squares mean (GLSMR line) ([8]; 25 mg): 35.67 ng/mL
MRAUC(0–t) (AUC(0–t) metabolite to parent ratio), arithmetic mean (SD) ([8]; 25 mg): 0.0760 (0.0227)
MRCmax (C max metabolite to parent ratio), arithmetic mean (SD) ([8]; 25 mg): 0.0917 (0.0312)
t 1/2 arithmetic mean (SD) ([8]; 25 mg): 4.66 (2.38) h
t max median (min, max) ([8]; 25 mg): 1.00 (0.50, 2.50) h
established frozen storage stability period [9]: 9 months
AUC(0–t), geometric least squares mean (GLSMR line) [7]: 347.3 ng·h/mL
C max, geometric least squares mean (GLSMR line) [7]: 106.4 ng/mL
MRAUC (AUC metabolite to parent ratio), arithmetic mean (SD) [7]: 0.0921 (0.0236)^a
MRAUC(0–t) (AUC(0–t) metabolite to parent ratio), arithmetic mean (SD) [7]: 0.0921 (0.0236)
MRCmax (C max metabolite to parent ratio), arithmetic mean (SD) [7]: 0.0760 (0.0187)
t 1/2 arithmetic mean (SD) [7]: 9.47 (3.24) h
t max median (min, max) [7]: 1.50 (1.00, 3.00) h
Compound: O=C(NOCCO)c1cc2nc[nH]c2c(F)c1Nc1ccc(Br)cc1Cl [N-desmethyl selumetinib]

Compound: CO[C@H]1/C=C/O[C@@]2(C)Oc3c(C)c(O)c4c(O)c(c(/C=N/N5CCN(C)CC5)c(O)c4c3C2=O)NC(=O)/C(C)=C\C=C\[C@H](C)[C@H](O)[C@@H](C)[C@@H](O)[C@@H](C)[C@H](OC(C)=O)[C@@H]1C [rifampicin, reference compound]
subjects reporting adverse events ([1]; period of rifampicin administration (days 4–11)): all subjects
subjects reporting chromaturia ([1]; period of rifampicin administration (days 4–11), resolved 2 to 3 days after treatment ceased): reported by all of these subjects
